# Test results from patent US4174451A, “2-Furyl-(3,4-dimethyl-2-pyridyl)-carbinol” (Laboratorios Made, S.A., priority 1977, dated 1979).
# Key:
# [1] = tested on: Swiss I.C.R. albino mice; assay: Chemical analgesia, acetic acid writhing technique; type: in vivo; settings: for No. of writhes x ± S.E.M.: 30 minutes before 0.25 ml of 1% acetic acid i.p., counted twenty minutes later, batches of 10 mice, control 78.4 ± 6.7
# Method: The analgesic effect was studied in Swiss I.C.R. albino mice, by the acetic acid writhing technique. Batches of 10 mice were made.
# The products under study were administered intraperitoneally, and 30 minutes later 0.25 ml of 1% acetic acid was injected intraperitoneally. A batch of control animals received only the acetic acid. Twenty minutes following administration of the acetic acid, the number of writhes in each mouse was counted.
# [2] = tested on: Swiss I.C.R. albino mice; assay: Thermal analgesia, 55° C. Hot Plate technique; type: in vivo; settings: for Jumping time in sec. x ± S.E.M.: 30 minutes after administration, batches of 10 mice, mean ± S.E.M., control 63.7 ± 4.54; for Signif. of differences vs Control (jumping time): p value
# Method: The thermal analgesic effect was studied in Swiss I.C.R. albino mice. The 55° C. Hot Plate technique was used. Batches of 10 mice were used.
# The products under study were administered intraperitoneally, and after 30 minutes the mice were placed on the hot plate, count being made of the time, in seconds, it took them to jump. Batches of control animals were injected only with distilled water.
# [3] = Acute toxicity in mice (LD50, Litchfield-Wilcoxon test); set-up: species or system Swiss I.C.R. albino mice; settings: mouse, in vivo, ip; intraperitoneal, deaths counted 48 hours after treatment, both sexes, fasted 24 hours
# Method: An acute toxicity study was made on Swiss I.C.R. albino mice of both sexes of 30± 2 g in weight, kept without food for 24 hours prior to the experiment. Ambient temperature and relative humidity were kept constant. The products were administered intraperitoneally, the number of deaths being counted 48 hours after treatment. The lethal dose (LD50) was calculated by the Litchfield-Wilcoxon test.
# [4] = p value, 30 mg/kg intraperitoneal
# [5] = in words, compared with dextropropoxyphene
Compound,No. of writhes x ± S.E.M. ([1]; 30 mg/kg intraperitoneal),"Signif. of differences vs Control (writhes) [1, 4]",Jumping time in sec. x ± S.E.M. ([2]; 30 mg/kg intraperitoneal),Signif. of differences vs Control (jumping time) ([2]; 30 mg/kg intraperitoneal),"chemical analgesic action [1, 5]","Signif. of differences vs Dextroprop. (writhes) ([1]; p value, 30 mg/kg intraperitoneal, vs dextropropoxyphene 30 mg/kg)",LD50 at 48 h [3],"Signif. of differences vs Dextroprop. (jumping time) ([2]; 30 mg/kg intraperitoneal, vs dextropropoxyphene 30 mg/kg, N.S.)","thermal analgesic action [2, 5]"
"CCC(=O)O[C@](Cc1ccccc1)(c1ccccc1)[C@H](C)CN(C)C [Dextropropoxyphene, dextropropoxyphene, reference compound]",8.4 ± 4.04,< 0.00005,116.8 ± 12.43 s,< 0.01,–,–,–,–,–
"Cc1ccnc(C(O)c2ccco2)c1C (stereo not shown) [Product I, 2-furyl-(3,4-dimethyl-2-pyridyl)-carbinol]",53 ± 6.07,< 0.02,110.1 ± 13.28 s,< 0.005,"chemical analgesic action, but of lesser intensity than that of dextropropoxyphene",< 0.00005,309 mg/kg,N.S.,same thermal analgesic action as the dextropropoxyphene
